According to the supplement of paper PMC8671470:

What was measured:
Settings in all cases: 72 h
HL-60 [1] = assay: cell viability (% survival relative to DMSO control); higher = less cytotoxic
Method in brief: (§1)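 For each screen, HL-60 cells in RPMI 1640 with 10% FBS carried either DMSO or 100 nM of one of three metabolic inhibitors while the full library was applied at five tenfold concentrations, 1–10,000 nM, in duplicate. Plates were 384-well and were kept 72 h at 37 °C, 5% CO2. Viability, measured by CellTiter-Glo, was normalised to wells with DMSO and with 10 μM proteasome inhibitor. Where area under the curve appears, it was fitted by four-parameter log-logistic models in drc and PharmacoGx.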

HL-60 [2] = assay: area under dose-response curve (viability, 1 nM-10 uM) (fraction (0-1)); higher = more sensitive
Method in brief: as §1

MOLM-13 [3] = assay: cell viability (% survival relative to DMSO control, bortezomib = 0%); higher = less cytotoxic
Method in brief: (§2)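 Fifteen myeloid leukaemia cell lines were exposed to compounds at 1, 10, 100, 1000 or 10000 nM in 384-well plates for 72 h at 37 °C and 5% CO2. Viability was read by CellTiter-Glo luminescence and normalised, with vehicle as 100% and a 10 µM positive control as 0%. Values are percent survival averaged over duplicates.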

Mono-Mac-6 [4] = assay: as above
Method in brief: as §2

LAMA-84 [5] = assay: as above
Method in brief: as §2

SHI-1 [6] = assay: as above
Method in brief: as §2

KCL-22 [7] = assay: as above
Method in brief: as §2

MV4-11 [8] = assay: as above
Method in brief: as §2

THP-1 [9] = assay: as above
Method in brief: as §2

KU-812 [10] = assay: as above
Method in brief: as §2

NOMO-1 [11] = assay: as above
Method in brief: as §2

HEL [12] = assay: as above
Method in brief: as §2

KG-1 [13] = assay: as above
Method in brief: as §2

ML-2 [14] = assay: as above
Method in brief: as §2

K-562 [15] = assay: as above
Method in brief: as §2

BV-173 [16] = assay: as above
Method in brief: as §2

HL-60 [17] = assay: as above
Method in brief: as §2

MOLM-13 [18] = tested on: MOLM-13
Method in brief: (§3)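 Fifteen myeloid leukaemia cell lines were seeded in RPMI 1640 at densities titrated to the linear growth range and placed in 384-well plates with acoustically pre-printed compounds at five tenfold doses from 1 to 10,000 nM, in duplicate. After 72 h at 37 °C with 5% CO2, luminescent ATP viability was normalised to vehicle and to a positive control at 10 µM, and curves were fitted with a four-parameter log-logistic model. The IC50 was obtained from these fits.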

Mono-Mac-6 [19] = tested on: Mono-Mac-6
Method in brief: as §3

LAMA-84 [20] = tested on: LAMA-84
Method in brief: as §3

SHI-1 [21] = tested on: SHI-1
Method in brief: as §3

KCL-22 [22] = tested on: KCL-22
Method in brief: as §3

MV4-11 [23] = tested on: MV4-11
Method in brief: as §3

THP-1 [24] = tested on: THP-1
Method in brief: as §3

KU-812 [25] = tested on: KU-812
Method in brief: as §3

NOMO-1 [26] = tested on: NOMO-1
Method in brief: as §3

HEL [27] = tested on: HEL
Method in brief: as §3

KG-1 [28] = tested on: KG-1
Method in brief: as §3

ML-2 [29] = tested on: ML-2
Method in brief: as §3

K-562 [30] = tested on: K-562
Method in brief: as §3

BV-173 [31] = tested on: BV-173
Method in brief: as §3

HL-60 [32] = tested on: HL-60
Method in brief: as §3

Cn1cc(-c2ccncc2)c(-c2ccc(OCc3ccc4ccccc4n3)cc2)n1
cell viability [%], HL-60 [1]
Settings | 0.001 µM | 0.01 µM | 0.1 µM | 1 µM | 10 µM
co-treatment: AZD3965 100 nM | 94.1 | 101 | 101 | 96.7 | 103
co-treatment: DMSO vehicle | 99.1 | 94.8 | 102 | 98.248 | 101
co-treatment: GSK2194069 100 nM | 103 | 101 | 107 | 90.9 | 81.8
co-treatment: pictilisib 100 nM | 98.7 | 101 | 114 | 94.4 | 107

HL-60 [2]
Settings | area under dose-response curve
co-treatment: AZD3965 100 nM | < 0.0301
co-treatment: DMSO vehicle | < 0.0301
co-treatment: GSK2194069 100 nM | 0.05
co-treatment: pictilisib 100 nM | 0.05

O=C(O)C(=S)Cc1c[nH]c2ccc(F)cc12
cell viability [%], HL-60 [1]
Settings | 0.001 µM | 0.01 µM | 0.1 µM | 1 µM | 10 µM
co-treatment: AZD3965 100 nM | 94 | 98.2 | 106 | 103 | 101.9
co-treatment: DMSO vehicle | 99.1 | 101 | 106 | 102 | 104
co-treatment: GSK2194069 100 nM | 90.8 | 101 | 103 | 104 | 104
co-treatment: pictilisib 100 nM | 91.7 | 99.9 | 101.8 | 101 | 97.2

HL-60 [2]
Settings | area under dose-response curve
co-treatment: AZD3965 100 nM | < 0.0301
co-treatment: DMSO vehicle | < 0.0301
co-treatment: GSK2194069 100 nM | < 0.0301
co-treatment: pictilisib 100 nM | < 0.0301

N#Cc1ccnc(N2C(=O)CC[C@H]2C(=O)N(c2cncc(F)c2)C(C(=O)NC2CC(F)(F)C2)c2ccccc2Cl)c1 (stereo partly drawn) [Ivosidenib]
cell viability [%]
Settings | 1 nM | 10 nM | 100 nM | 1000 nM | 10000 nM
BV-173 [16] | 93.2 | 95.1 | 95.8 | 104 | 92.2
HEL [12] | 89.5 | 104 | 114 | 105 | 121
HL-60 [17] | 112 | 100 | 116 | 95.3 | 92.1
K-562 [15] | 90.3 | 105 | 101 | 99.2 | 93.3
KCL-22 [7] | 92.3 | 95.3 | 110 | 99 | 93.3
KG-1 [13] | 92.4 | 105 | 106 | 98.2 | 78.2
KU-812 [10] | 92.7 | 102 | 107 | 106 | 87.4
LAMA-84 [5] | 112 | 101 | 110 | 107 | 81.4
ML-2 [14] | 107 | 85.4 | 105 | 98.1 | 92
MOLM-13 [3] | 111 | 103 | 109 | 96 | 95.1
MV4-11 [8] | 98 | 104 | 107 | 110 | 94.5
Mono-Mac-6 [4] | 97.8 | 88.9 | 108 | 90.2 | 81.5
NOMO-1 [11] | 97.8 | 95.6 | 103 | 104 | 90.8
SHI-1 [6] | 99.1 | 104 | 100 | 95.4 | 104
THP-1 [9] | 103 | 94.9 | 107 | 102 | 96

Settings | IC50 (cell viability) [µM]
BV-173 [31] | > 10
HEL [27] | > 10
HL-60 [32] | > 10
K-562 [30] | > 10
KCL-22 [22] | > 10
KG-1 [28] | > 10
KU-812 [25] | > 10
LAMA-84 [20] | > 10
ML-2 [29] | > 10
MOLM-13 [18] | > 10
MV4-11 [23] | > 10
Mono-Mac-6 [19] | > 10
NOMO-1 [26] | > 10
SHI-1 [21] | > 10
THP-1 [24] | > 10
